How the values were obtained:
[1] = target: Ova257-264-specific B3Z hybridoma; assay: β-galactosidase-based T hybridoma stimulation assay; parameters: species or system mouse; settings: L-Kb cells infected with rVV at 10 pfu/cell or pulsed with peptide 10^-9 M; FIGS. 4, 5
Description: FIG. 4. The TK frameshifting element directs expression and in vitro presentation of Ova257-264 that has been shifted to RF+1. The TK frameshifting element was inserted into the SphI site of NP/Ova257-264, shifiting all downstream NP/Ova257-264-encoding sequence, including Ova257-264, into RF+1 (TK-FS). Negative and positive control TK sequences (TK-NC, and TK-IF respectively) were also inserted. L-K^b cells were infected overnight with rVVs expressing these three constructs, along with a negative control VV (VV-NC). […]
Assays for epitope expression based upon use of the B3Z T hybridoma that produces β-galactosidase upon activation, have been described previously (Wherry, et al, J. Immunol 163, no. 7:3735, 1999). […] After overnight incubation, β-galactosidase production was assessed using the fluorogenic substrate methyl umbelliferone-βgalactoside as described by Sanderson and Shastri (Sanderson and N. Shastri, Internal Immunology 158:3227, 1997).
The frameshifting element derived from the mutant (TK-FS), as well as control sequences, in which the G run required for frameshifting was deleted (TK-NC), were tested following insertion into the SphI site of the NP/Ova257-264 construct (see FIG. 2) and recognition of Ova257-264 was monitored. […]

transformed cell lines = settings: cited from earlier work
antizyme = settings: cited from earlier work

Ova257-264: synthetic version of the H-2Kb-restricted epitope within ovalbumin (ESIINFEK; UniProt P01012 257-264, looked up, fragment)
Kb/Ova257-264-specific recognition (β-galactosidase production by B3Z versus BWZ) [1]: strong specific response

N=C(N)NCCCCN [agmatine]
growth of transformed cell lines (transformed cell lines): growth inhibition of transformed cell lines
polyamine levels (antizyme): lowered polyamine levels
antizyme expression (antizyme; via effect on +1 frameshifting): capable of stimulating antizyme expression

From patent US20020068274A1, “Novel method for assessing recoding in vitro and in vivo” (priority 2000, published 2002)
